Measured values from PMC6104039 (Nature Communications, 2018).
Values joined by “and” are separate entries in the source; they are usually repeats but may differ in a detail not shown here. Equal entries are not always repeated.

Tested on: HEK293 cells
Assay: Endogenous ceramide, HexCer and SM levels in cells treated 24 h, targeted LC-MS/MS
Assay type: cell-based
Conditions: HEK293 cells, 24 h
Protocol: Lipids were then extracted using MTBE/methanol/water as described above.
HEK293 cell culture experiment: Levels of each lipid in P053-treated HEK293 cells were normalised to the mean of the vehicle control group, and each concentration was compared to the control using ANOVA with Dunnett’s post-test. P values were adjusted for multiple comparisons in GraphPad PRISM.
Supplementary Figure 1. Ceramide, SM, and HexCer levels in HEK293 cells treated with
P053. Absolute lipid levels were determined by targeted LC-MS/MS, relative to external
standard curves. Results are mean ± SEM (n = 4) from one of two identical experiments.
Statistically significant results, based on two independent experiments, are as indicated in
Figure 2b-d. Raw data for these figures is provided in Supplementary Data File 1.

SMILES: C[C@@](N)(CO)CCc1ccc(OCc2ccc(Cl)c(Cl)c2)cc1 [P053, (S)-2-amino-4-(4-(3,4-dichlorobenzyloxy)phenyl)-2-methylbutan-1-ol]
- 24:1 SM level (P053 10 nM): 96.7947 percentage of the vehicle control group and 98.2864 percentage of the vehicle control group and 81.9082 percentage of the vehicle control group and 117.227 percentage of the vehicle control group and 113.319 percentage of the vehicle control group and 103.033 percentage of the vehicle control group and 103.816 percentage of the vehicle control group and 97.9548 percentage of the vehicle control group
- 14:0 SM level (P053 30 nM): 116.988 percentage of the vehicle control group and 111.4 percentage of the vehicle control group and 100.814 percentage of the vehicle control group and 94.1513 percentage of the vehicle control group and 120.651 percentage of the vehicle control group and 105.592 percentage of the vehicle control group and 111.904 percentage of the vehicle control group and 100.551 percentage of the vehicle control group
- 16:0 Cer level (P053 30 nM): 114.03 percentage of the vehicle control group and 105.56 percentage of the vehicle control group and 86.7073 percentage of the vehicle control group and 95.6011 percentage of the vehicle control group and 106.761 percentage of the vehicle control group and 98.8726 percentage of the vehicle control group and 108.159 percentage of the vehicle control group and 97.2516 percentage of the vehicle control group
- 16:0 HexCer level (P053 30 nM): 79.9911 percentage of the vehicle control group and 81.3101 percentage of the vehicle control group and 74.3038 percentage of the vehicle control group and 88.8289 percentage of the vehicle control group and 99.9863 percentage of the vehicle control group and 95.9283 percentage of the vehicle control group and 102.652 percentage of the vehicle control group and 109.256 percentage of the vehicle control group
- 16:0 SM level (P053 30 nM): 101.805 percentage of the vehicle control group and 101.307 percentage of the vehicle control group and 94.9476 percentage of the vehicle control group and 93.9555 percentage of the vehicle control group and 110.566 percentage of the vehicle control group and 97.2802 percentage of the vehicle control group and 102.981 percentage of the vehicle control group and 97.8958 percentage of the vehicle control group
- 16:1 SM level (P053 30 nM): 104.561 percentage of the vehicle control group and 101.096 percentage of the vehicle control group and 98.3763 percentage of the vehicle control group and 109.464 percentage of the vehicle control group and 104.292 percentage of the vehicle control group and 104.01 percentage of the vehicle control group and 101.515 percentage of the vehicle control group
- 18:0 Cer level (P053 30 nM): 72.2013 percentage of the vehicle control group and 69.2543 percentage of the vehicle control group and 56.626 percentage of the vehicle control group and 64.3691 percentage of the vehicle control group and 82.5432 percentage of the vehicle control group and 84.0607 percentage of the vehicle control group and 83.9582 percentage of the vehicle control group and 71.3957 percentage of the vehicle control group
- 18:0 HexCer level (P053 30 nM): 55.7883 percentage of the vehicle control group and 64.0009 percentage of the vehicle control group and 45.6733 percentage of the vehicle control group and 59.2017 percentage of the vehicle control group and 57.5393 percentage of the vehicle control group and 74.8051 percentage of the vehicle control group and 77.6074 percentage of the vehicle control group
- 18:0 SM level (P053 30 nM): 73.8483 percentage of the vehicle control group and 78.6872 percentage of the vehicle control group and 83.1913 percentage of the vehicle control group and 75.9206 percentage of the vehicle control group and 97.6949 percentage of the vehicle control group and 87.2321 percentage of the vehicle control group and 89.1916 percentage of the vehicle control group and 74.9956 percentage of the vehicle control group
- 18:1 SM level (P053 30 nM): 87.9585 percentage of the vehicle control group and 73.1683 percentage of the vehicle control group and 79.2449 percentage of the vehicle control group and 71.4358 percentage of the vehicle control group and 96.5941 percentage of the vehicle control group and 87.3865 percentage of the vehicle control group and 81.7473 percentage of the vehicle control group and 78.1368 percentage of the vehicle control group
- 20:0 Cer level (P053 30 nM): 62.7306 percentage of the vehicle control group and 109.856 percentage of the vehicle control group and 118.09 percentage of the vehicle control group and 96.2985 percentage of the vehicle control group and 100.9 percentage of the vehicle control group and 105.057 percentage of the vehicle control group and 91.6087 percentage of the vehicle control group
- 22:0 Cer level (P053 30 nM): 116.044 percentage of the vehicle control group and 99.7524 percentage of the vehicle control group and 91.9349 percentage of the vehicle control group and 88.0267 percentage of the vehicle control group and 116.852 percentage of the vehicle control group and 103.772 percentage of the vehicle control group and 120.038 percentage of the vehicle control group and 118.899 percentage of the vehicle control group
- 22:0 HexCer level (P053 30 nM): 90.0465 percentage of the vehicle control group and 79.6776 percentage of the vehicle control group and 76.0982 percentage of the vehicle control group and 95.044 percentage of the vehicle control group and 107.866 percentage of the vehicle control group and 100.167 percentage of the vehicle control group and 123.322 percentage of the vehicle control group and 116.268 percentage of the vehicle control group
- 22:0 SM level (P053 30 nM): 128.14 percentage of the vehicle control group and 90.1111 percentage of the vehicle control group and 110.345 percentage of the vehicle control group and 114.556 percentage of the vehicle control group and 123.558 percentage of the vehicle control group and 116.784 percentage of the vehicle control group and 129.764 percentage of the vehicle control group and 100.326 percentage of the vehicle control group
- 22:1 SM level (P053 30 nM): 99.3902 percentage of the vehicle control group and 113.946 percentage of the vehicle control group and 108.27 percentage of the vehicle control group and 113.134 percentage of the vehicle control group and 107.671 percentage of the vehicle control group and 100.443 percentage of the vehicle control group and 99.5068 percentage of the vehicle control group and 95.4079 percentage of the vehicle control group
- 24:0 HexCer level (P053 30 nM): 96.4804 percentage of the vehicle control group and 86.7028 percentage of the vehicle control group and 84.7209 percentage of the vehicle control group and 91.5325 percentage of the vehicle control group and 104.127 percentage of the vehicle control group and 98.7325 percentage of the vehicle control group and 129.497 percentage of the vehicle control group and 115.717 percentage of the vehicle control group
- 24:0 SM level (P053 30 nM): 114.636 percentage of the vehicle control group and 105.214 percentage of the vehicle control group and 97.3725 percentage of the vehicle control group and 90.2877 percentage of the vehicle control group and 117.867 percentage of the vehicle control group and 114.443 percentage of the vehicle control group and 132.815 percentage of the vehicle control group and 128.722 percentage of the vehicle control group
- 24:1 Cer level (P053 30 nM): 117.491 percentage of the vehicle control group and 102.844 percentage of the vehicle control group and 87.9247 percentage of the vehicle control group and 98.6487 percentage of the vehicle control group and 120.911 percentage of the vehicle control group and 109.977 percentage of the vehicle control group and 130.805 percentage of the vehicle control group and 124.062 percentage of the vehicle control group
- 24:1 HexCer level (P053 30 nM): 93.843 percentage of the vehicle control group and 87.9781 percentage of the vehicle control group and 89.6469 percentage of the vehicle control group and 99.7739 percentage of the vehicle control group and 102.587 percentage of the vehicle control group and 104.249 percentage of the vehicle control group and 119.244 percentage of the vehicle control group and 107.968 percentage of the vehicle control group
- 24:1 SM level (P053 30 nM): 102.826 percentage of the vehicle control group and 100.942 percentage of the vehicle control group and 98.397 percentage of the vehicle control group and 94.2567 percentage of the vehicle control group and 116.83 percentage of the vehicle control group and 103.091 percentage of the vehicle control group and 120.071 percentage of the vehicle control group and 112.514 percentage of the vehicle control group
- 14:0 SM level (P053 100 nM): 112.517 percentage of the vehicle control group and 90.2734 percentage of the vehicle control group and 104.152 percentage of the vehicle control group and 104.709 percentage of the vehicle control group and 117.225 percentage of the vehicle control group and 115.891 percentage of the vehicle control group and 108.424 percentage of the vehicle control group and 118.856 percentage of the vehicle control group
